#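 Exposure lasted 48 hours, with cells grown in 96-well plates and compounds tested at five concentrations. TGI is the concentration that stops growth completely.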
# Legend:
# Experiment in all cases: inhibition of tumour cell growth, NCI panel, 48 h
# [1] = system: OVCAR-8 ovarian
# [2] = system: MOLT-4 leukemia
# [3] = system: HCT-15 colon
# [4] = system: UACC-62 melanoma
# [5] = system: A549 NSCLC
# [6] = system: NCI-H226 lung
# [7] = system: MDA-MB-435
# [8] = system: NCI-H23 lung
# [9] = system: M14 melanoma
# [10] = system: SF-295 CNS
# [11] = system: OVCAR-3 ovarian
# [12] = system: NCI-H460 lung
# [13] = system: OVCAR-4 ovarian
# [14] = system: HCT-116 colon
# [15] = system: ACHN renal
# [16] = system: SK-MEL-5 melanoma
# [17] = system: DU-145 prostate
# [18] = system: HT29 colon
# [19] = system: COLO 205 colon
Compound,TGI [1],TGI [2],TGI [3],TGI [4],TGI [5],TGI [6],TGI [7],TGI [8],TGI [9],TGI [10],TGI [11],TGI [12],TGI [13],TGI [14],TGI [15],TGI [16],TGI [17],TGI [18],TGI [19]
COc1ccc(C)cc1Nc1nnc(-c2ccc(N)cc2)s1,> 100 µM,> 100 µM,> 100 µM,> 100 µM,> 100 µM,> 100 µM,> 100 µM,> 100 µM,> 100 µM,> 100 µM,> 100 µM,> 100 µM,> 100 µM,> 100 µM,> 100 µM,> 100 µM,> 100 µM,> 100 µM,> 100 µM
Cc1ccc(/C=N/NS(=O)(=O)c2ccc(/C=C3\NC(=O)NC3=O)cc2)cc1,> 100 µM,> 100 µM,> 100 µM,> 100 µM,> 100 µM,> 100 µM,> 100 µM,> 100 µM,> 100 µM,> 100 µM,> 100 µM,> 100 µM,> 100 µM,> 100 µM,> 100 µM,> 100 µM,> 100 µM,> 100 µM,> 100 µM
CC(C)NC(=O)OCc1c(COC(=O)NC(C)C)c(-c2ccc[n+](COC(=O)C(C)(C)C)c2)n2c1CCC2,> 100 µM,> 100 µM,> 100 µM,> 100 µM,> 100 µM,> 100 µM,> 100 µM,> 100 µM,> 100 µM,> 100 µM,> 100 µM,> 100 µM,> 100 µM,> 100 µM,> 100 µM,> 100 µM,> 100 µM,> 100 µM,> 100 µM
CC(C)N1[C@@H]2CCCC[C@H]2N(C(C)C)P1(=O)C(=O)/C=C/c1ccccc1,3.46 µM,16.1 µM,4.14 µM,9.02 µM,12.4 µM,24.6 µM,3.74 µM,6.42 µM,5.49 µM,23.4 µM,5.74 µM,10.3 µM,3.39 µM,3.73 µM,8.62 µM,3.44 µM,4.94 µM,8.03 µM,5.05 µM
Cc1cn(C2CC(NC(=NCC3OC(n4cnc5c(N)ncnc54)CC3O)NC#N)C(CO)O2)c(=O)[nH]c1=O (stereo not drawn),> 100 µM,> 100 µM,> 100 µM,> 100 µM,> 100 µM,> 100 µM,> 100 µM,> 100 µM,> 100 µM,> 100 µM,> 100 µM,> 100 µM,> 100 µM,> 100 µM,> 100 µM,> 100 µM,> 100 µM,> 100 µM,> 100 µM
CCOP(=O)(OCC)C(F)(F)Cc1cnc(C)c2c1COC(C)(C)O2,> 10 µM,> 10 µM,> 10 µM,> 10 µM,> 10 µM,> 10 µM,> 10 µM,> 10 µM,> 10 µM,> 10 µM,> 10 µM,> 10 µM,> 10 µM,> 10 µM,> 10 µM,> 10 µM,> 10 µM,> 10 µM,> 10 µM
CC1=C[C@@H]2[C@@H](CC(CO)=C[C@H]3[C@@H]4C(C)(C)[C@]4(OCC(C)C)[C@H](OCC(C)C)[C@@H](C)[C@]23O)C1=O,> 6.08 µM,2.96 µM,2.77 µM,3.2 µM,> 8.32 µM,> 4.53 µM,> 6.31 µM,5.81 µM,> 5.15 µM,> 8.32 µM,5.46 µM,> 8.32 µM,> 8.32 µM,> 4.72 µM,3.4 µM,> 4.37 µM,> 8.32 µM,2.87 µM,1.4 µM
O=C(O)c1ccc(NNC(=O)c2cccc3c(=O)c4ccccc4[nH]c23)cc1,> 100 µM,> 100 µM,> 100 µM,> 100 µM,> 100 µM,> 100 µM,> 100 µM,> 100 µM,> 100 µM,> 100 µM,> 100 µM,> 100 µM,> 100 µM,> 100 µM,> 100 µM,> 100 µM,> 100 µM,> 100 µM,> 100 µM
O=S(=O)(O)C(Cc1nc2ccccc2[nH]1)S(=O)(=O)OCCC1S(=O)(=O)OCCOS1(=O)=O (stereo not drawn),> 100 µM,> 100 µM,> 100 µM,> 100 µM,> 100 µM,> 100 µM,> 100 µM,> 100 µM,> 100 µM,> 100 µM,> 100 µM,> 100 µM,> 100 µM,> 100 µM,> 100 µM,> 100 µM,> 100 µM,> 100 µM,> 100 µM
CCn1c2ccccc2c2cc(NC(=O)c3c(NCCNCCO)nc(=O)[nH]c3C)ccc21,> 100 µM,> 100 µM,> 100 µM,> 100 µM,> 100 µM,> 100 µM,> 100 µM,> 100 µM,> 100 µM,> 100 µM,> 100 µM,> 100 µM,> 100 µM,> 100 µM,> 100 µM,> 100 µM,> 100 µM,> 100 µM,> 100 µM
CCOC(=O)c1cc(C#N)[nH]c1-c1ccsc1,> 100 µM,53.1 µM,> 100 µM,> 100 µM,> 100 µM,> 100 µM,51.9 µM,> 100 µM,> 100 µM,> 100 µM,96 µM,> 100 µM,> 100 µM,> 100 µM,> 100 µM,> 100 µM,58.8 µM,95.1 µM,> 100 µM
COc1cc2c(cc1OC)C(=O)/C(=C/c1ccc([N+](=O)[O-])cc1)CC2,> 10 µM,> 10 µM,> 10 µM,> 10 µM,> 10 µM,> 10 µM,> 10 µM,> 10 µM,> 10 µM,> 10 µM,> 10 µM,> 10 µM,> 10 µM,> 10 µM,> 10 µM,> 10 µM,> 10 µM,> 10 µM,> 10 µM
c1cc(C[S+]2CCCC2)sc1C[S+]1CCCC1,> 100 µM,> 100 µM,> 100 µM,> 100 µM,> 100 µM,> 100 µM,> 100 µM,> 100 µM,> 100 µM,> 100 µM,> 100 µM,> 100 µM,> 100 µM,> 100 µM,> 100 µM,> 100 µM,> 100 µM,> 100 µM,> 100 µM
CN1CCc2cc(N)cc3c2C1Cc1ccc2c(c1-3)OCO2 (stereo not drawn),> 100 µM,35 µM,> 100 µM,70.5 µM,> 100 µM,83.2 µM,> 100 µM,> 100 µM,> 100 µM,> 100 µM,> 76.5 µM,> 77.8 µM,> 90.4 µM,> 90.4 µM,> 75.5 µM,49.8 µM,96.9 µM,> 100 µM,> 86.9 µM
O=C1OC(CS(=O)(=O)c2ccccc2)CC1O (stereo not drawn),> 100 µM,> 100 µM,> 100 µM,> 100 µM,> 100 µM,> 100 µM,> 100 µM,> 100 µM,> 100 µM,> 100 µM,> 100 µM,> 100 µM,> 100 µM,> 100 µM,> 100 µM,> 100 µM,> 100 µM,> 100 µM,> 100 µM
Cc1cc(O)c2c(c1)CC(O)C1=C2C(=O)c2c(O)ccc(OC3CC(O)C(OC4CC(OC5CCC(O)C(C)O5)C(O)C(C)O4)C(C)O3)c2C1=O (stereo not drawn),3.51 µM,1.75 µM,4.64 µM,3.05 µM,7.77 µM,3.32 µM,2.82 µM,3.88 µM,3.04 µM,7.47 µM,2.16 µM,4.85 µM,3.45 µM,3.47 µM,2.95 µM,2.78 µM,3.19 µM,5.6 µM,2.95 µM
N#CC(c1ccccc1)N(CCOCCOCCN(C(=O)c1cccc2ccccc12)C(C#N)c1ccccc1)C(=O)c1cccc2ccccc12 (stereo not drawn),> 100 µM,> 100 µM,> 100 µM,> 100 µM,> 100 µM,> 100 µM,> 100 µM,> 100 µM,> 100 µM,> 100 µM,> 100 µM,> 100 µM,> 100 µM,> 100 µM,> 100 µM,> 100 µM,> 100 µM,> 100 µM,> 100 µM

# Source: PubChem BioAssay (NCI)
